One assay addresses nicotinic receptors. In words: Nicotinic channel receptor binding: [3H]-cystine binding to crude synaptic membranes from whole rat brain. The following applies: 1.25 nM [3H-cystine], about 60 min, about 4° C. The protocol: Nicotinic Channel Receptor Binding Protocol:
The activity of the compounds claimed herein at the nicotinic receptor can be accomplished by the following assay.
Binding of […] to nicotinic receptors was accomplished using crude synaptic membrane preparations from whole rat brain (Pabreza et al. Molecular Pharmacol., 1990, 39:9). Washed membranes were stored at about -80° C. prior to use. Frozen aliquots were slowly thawed and resuspended in 20 volumes of buffer (containing: […] NaCl, 5 mM KCl, 2 mM MgCl2, 2 mM Tris-Cl, ph 7.4 @4° C.). After centrifuging at 20,000×g for 15 minutes, the pellets were resuspended in about 30 volumes of buffer. Homogenate (containing about 125-150 ug protein) was added to tubes containing concentrations of test compound and [^3 H-cystine] (1.25 nM) in a final volume of 500 uL. Samples were incubated for about 60 minutes at about 4° C., then rapidly filtered through GF/B filters presoaked in 0.5% polyethylimine using 3×4 mL of ice cold buffer. The filters were counted.

Assay [1] addresses T1, muscarinic receptors (M1-site, pirenzepine sensitive site) (Rattus norvegicus, UniProt P08482).
T1 construct: from tissue; host or cells: cerebral cortex membranes of male Wistar rats
T1 sequence (P08482 1-460): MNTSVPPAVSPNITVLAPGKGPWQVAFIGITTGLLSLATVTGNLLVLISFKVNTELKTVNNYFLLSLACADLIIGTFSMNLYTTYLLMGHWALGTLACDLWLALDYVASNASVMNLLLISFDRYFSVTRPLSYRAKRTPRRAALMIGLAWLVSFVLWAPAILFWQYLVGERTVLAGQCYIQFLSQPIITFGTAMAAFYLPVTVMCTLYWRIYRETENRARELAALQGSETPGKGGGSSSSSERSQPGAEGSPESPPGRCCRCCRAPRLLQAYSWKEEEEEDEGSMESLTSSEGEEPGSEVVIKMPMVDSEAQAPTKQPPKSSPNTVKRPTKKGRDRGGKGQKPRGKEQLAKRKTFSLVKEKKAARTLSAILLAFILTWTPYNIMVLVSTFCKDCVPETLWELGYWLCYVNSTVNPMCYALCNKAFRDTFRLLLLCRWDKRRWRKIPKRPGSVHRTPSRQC
In words: Inhibition of 3HPRZ (pirenzepine, [N-methyl-3H]) binding to rat cerebral cortex membranes. Further details: species or system male Wistar rats. As to the method: Furthermore the pharmacological properties of the compounds of the invention can also be illustrated by determining their capability to inhibit ^3 HPRZ (pirenzepine, [N-methyl-^3 H]) binding to rat cerebral cortex membranes.
Pirenzepine binds selectively to subtype of muscarinic receptors. Historically the type is named the M1 -site, whereas pirenzepine sensitive site would be more appropriate.
All preparations are performed at 0-4° C. unless otherwise indicated. Fresh cortex ([…]) from male Wistar rats (150-200 g) is homogenized for 5-10 s in 10 mL 20 mM Hepes pH: 7.4, with an Ultra-Turrax homogenizer. The homogenizer is rinsed with 2×10 mL of buffer and the combined suspension centrifuged for 15 min. at 40,000×g. The pellet is washed three times with buffer. In each step the pellet is homogenized as before in 3×10 mL of buffer and centrifuged for 10 min. at 40,000×g.
The final pellet is homogenized in 20 MM Hepes pH: 7.4 (100 mL per g of original tissue) and used for binding assay. Aliquots of 0.5 mL is added 20 μL of test solution and 25 μL of ^3 HPRZ (1.0 nM, final conc.), mixed and incubated for 60 min. at 20° C. Non-specific binding is determined in triplicate using atropine (1.0 μg/mL, final conc.) as the test substance. After incubation samples are added 5 mL of ice-cold buffer and poured directly onto Whatman GF/C glass fiber filters under suction and immediately washed 2 times with 5 mL of ice-cold buffer.
The amount of radioactivity on the filters are determined by conventional liquid scintillation counting. Specific binding is total binding minus non-specific binding.
Test substances are dissolved in 10 mL water, at a concentration of 0.22 mg/mL. 25-75% inhibition of specific binding must be obtained before calculation of IC50.
The test value will be given as IC50 (the concentration (nM) of the test substance which inhibits the specific binding of ^3 HPRZ by 50%). IC50 =(applied test substance concentration) x(Cx /Co -Cx)nM where Co is specific binding in control assays and Cx is the specific binding in the test assay. (The calculations assume normal mass-action kinetics).

The target in assay [2] is muscarinic acetylcholine receptors. The assay is described as follows: Inhibition of specific binding of 3H-Oxotremorine-M (3H-Oxo) to rat cortex membranes. Further details: species or system male Wistar rats. The following applies: 1.0 nM 3H-Oxotremorine, 30 min, 25° C., pH 7.4. An excerpt: The pharmacological properties of the compounds of the invention can be illustrated by determining their capability to inhibit the specific binding of ^3 H-Oxotremorine-M (^3 H-Oxo). Birdsdall N. J. M., Hulme E. C., and Burgen A. S. V. (1980). "The Character of Muscarinic Receptors in Different Regions of the Rat Brain". Proc. Roy. Soc. London (Series B) 207,1.
^3 H-Oxo labels muscarinic receptor in the CNS (with a preference for agonist domains of the receptors). Three different sites are labeled by ^3 H-Oxo. […] Using the present experimental conditions only the high and medium affinity sites are determined.
The inhibitory effects of compounds on ^3 H-oxo binding reflects the affinity for muscarinic acetylcholine receptors.
All preparations are performed at 0-4° C. unless otherwise indicated. Fresh cortex (0.1-1 g) from male Wistar rats (150-250 g) is homogenized for 5-10 s in 10 mL […] Hepes pH: 7.4, with an Ultra-Turrax homogenizer. The homogenizer is rinsed with 10 mL of buffer and the combined suspension centrifuged for 15 min. at 40,000×g. The pellet is washed three times with buffer. In each step the pellet is homogenized as before in 2×10 mL of buffer and centrifuged for 10 min. at 40,000×g.
The final pellet is homogenized in 20 mM Hepes pH: 7.4 (100 mL per g of original tissue) and used for binding assay. Aliquots of 0.5 mL is added 25 μL of test solution and 25 μL of ^3 H-Oxotremorine (1.0 nM, final concentration) mixed and incubated for 30 min. at 25° C. Non-specific binding is determined in triplicate using arecoline (1 μg/mL, final concentration) as the test substance. After incubation samples are added 5 mL of ice-cold buffer and poured directly onto Whatman GF/C glass fiber filters under suction and immediately washed 2 times with 5 mL of ice-cold buffer. The amount of radioactivity on the filters are determined by conventional liquid scintillation counting. Specific binding is total binding minus non specific binding.
Test substances are dissolved in 10 mL water (if necessary heated on a steam-bath for less than 5 min.) at a concentration of 2.2 mg/mL. 25-75% inhibition of specific binding must be obtained before calculation of IC50. The test value will be given as IC50 (the concentration (nM) of the test substance which inhibits the specific binding of ^3 H-oxo by 50%). IC50 =(applied test substance concentration) x([…])nM where Co is specific binding in control assays and Cx is the specific binding in the test assay. (The calculations assume normal mass-action kinetics).

[3] abbreviates: rat cerebral cortex, 1.0 nM 3HPRZ, 60 min, 20° C., pH 7.4, read-out: 3HPRZ IC50.

Each structure is given as a SMILES string. Where two headings read alike, the source gives them in different places.

`CCCCSc1nccnc1OC1CN2CCC1CC2` (racemic) [Compound 6, (+/-)-3-Butylthio-2-(1-azabicyclo[2.2.2]octyl-3-oxy)pyrazine]: at nicotinic receptors, the affinity, expressed as Ki, was 5490 nM.
Turning to `CCCCOc1nccnc1O[C@@H]1CN2CCC[C@H]1C2` (relative stereo) [Compound 23, 3-(1-butyloxy)-2-[endo-(+,-)-6-(1-azabicyclo[3.2.1]octyloxy)]-pyrazine], the IC50 came out at 2.7 nM in assay [1] and 4.9 nM in assay [2].
For the compound `CCCCSc1nccnc1O[C@@H]1CN2CCC[C@H]1C2` (relative stereo) [Compound 24, 3-(1-butylthio)-2-[endo-(+,-)-6-(1-azabicyclo[3.2.1]octyloxy)]-pyrazine], the figures for the IC50 in assay [1] (setting [3]) and in assay [2] were 0.54 nM and 2.2 nM, respectively.
On to `CCCSc1nccnc1O[C@@H]1CN2CCC[C@H]1C2` (relative stereo) [Compound 29, (±)-endo-2-Propylthio-3-(1-azabicyclo[3.2.1]octyl-6-oxy)pyrazine], for which the IC50 in assay [1] (setting [3]) is 0.68 nM; in assay [2], 1.7 nM.
`CCCCCSc1nccnc1O[C@@H]1CN2CCC[C@H]1C2` (relative stereo) [Compound 30, (±)-endo-2-Pentylthio-3-(1-azabicyclo[3.2.1]octyl-6-oxy)pyrazine]: the IC50 in assay [1] (setting [3]) was determined as 0.82 nM; in assay [2], 4.4 nM.
The like results for `CC(C)CSc1nccnc1O[C@@H]1CN2CCC[C@H]1C2` (relative stereo) [Compound 31, (±)-endo-2-(2-Methylpropylthio)-3-(1-azabicyclo[3.2. 1]octyl-6-oxy)pyrazine] were, in that order, 1.7 nM and 3.4 nM.
For the compound `CCSc1nccnc1O[C@@H]1CN2CCC[C@H]1C2` (relative stereo) [Compound 32, (±)-endo-2-Ethylthio-3-(1-azabicyclo[3.2.1]octyl-6-oxy)pyrazine], the IC50 in assay [1] (setting [3]) came out at 4 nM; in assay [2], 3.9 nM.
On to `FC(F)(F)CSc1nccnc1O[C@@H]1CN2CCC[C@H]1C2` (relative stereo) [Compound 33, (±)-endo-2-(2,2,2,-Trifluoroethylthio)-3-(1-azabicyclo[3.2. 1]octyl-6-oxy)pyrazine], for which the IC50 in assay [1] (setting [3]) stood at 0.7 nM; in assay [2], 1.5 nM.
For the compound `C/C=C/CSc1nccnc1O[C@@H]1CN2CCC[C@H]1C2` (relative stereo) [Compound 34, (±)-endo-2-(trans-2-Butenylthio)-3-(1-azabicyclo[3.2. 1]octyl-6-oxy)pyrazine], the IC50 in assay [1] (setting [3]) came to 0.66 nM; in assay [2] it was 2 nM.
Take `FC(F)(F)CCCSc1nccnc1O[C@@H]1CN2CCC[C@H]1C2` (relative stereo) [Compound 35, (±)-endo-2-(4,4,4-Trifluorobutylthio)-3-(1-azabicyclo[3.2. 1]octyl-6-oxy)pyrazine]: the IC50 is 0.54 nM in assay [1] (setting [3]) and 3.2 nM in assay [2].
In the case of `C=CCSc1nccnc1O[C@@H]1CN2CCC[C@H]1C2` (relative stereo) [Compound 36, (±)-endo-2-(2-propenylthio)-3-(1-azabicyclo[3.2.1]octyl-6-oxy)pyrazine], the IC50 in assay [1] (setting [3]) came out at 5.8 nM; in assay [2], 0.34 nM.
Regarding `CC(C)CCSc1nccnc1O[C@@H]1CN2CCC[C@H]1C2` (relative stereo) [Compound 37, (±)-endo-2-(3-Methylbutylthio)-3-(1-azabicyclo[3.2. 1]octyl-6-oxy)pyrazine], the IC50 was 0.76 nM in assay [1] (setting [3]) and 1.3 nM in assay [2].
For `FC(F)(F)Oc1ccc(CSc2nccnc2O[C@@H]2CN3CCC[C@H]2C3)cc1` (relative stereo) [Compound 38, (±)-endo-2-(4-Trifluoromethoxybenzylthio)-3-(1-azabicyclo[3.2. 1]octyl-6-oxy)pyrazine], the IC50 in assay [1] (setting [3]) came to 3.3 nM; in assay [2], 6.2 nM.
Regarding `CCCSc1cncc(O[C@@H]2CN3CCC[C@H]2C3)n1` (relative stereo) [Compound 39, (±)-endo-2-Propylthio-6-(1-azabicyclo[3.2.1]octyl-6-oxy)pyrazine], the IC50 in assay [1] (setting [3]) amounted to 80 nM; in assay [2] it was 10 nM.
With `FC(F)(F)CSc1cncc(O[C@@H]2CN3CCC[C@H]2C3)n1` (relative stereo) [Compound 40, (±)-endo-2-(2.2.2-Trifluoroethylthio)-6-(1-azabicyclo[3.2. 1]octyl-6-oxy)pyrazine], the IC50 in assay [1] (setting [3]) was 17 nM; in assay [2], 60 nM.
`COCCSc1nccnc1O[C@@H]1CN2CCC[C@H]1C2` (relative stereo) [Compound 41, (±)-endo-2-(2-Methoxyethylthio)-3-(1-azabicyclo[3.2. 1]octyl-6-oxy)pyrazine]: the IC50 in assay [1] (setting [3]) was found to be 1.6 nM; in assay [2], 3.2 nM.
Regarding `C(=Cc1ccccc1)CSc1nccnc1O[C@@H]1CN2CCC[C@H]1C2` (relative stereo) [Compound 42, (±)-endo-2-(3-Phenyl-2-propenylthio)-3-(1-azabicyclo[3.2. 1]octyl-6-oxy)pyrazine], the IC50 in assay [1] (setting [3]) amounted to 4.8 nM; in assay [2], 9.1 nM.
The like results for `CC(C)=CCCSc1nccnc1O[C@@H]1CN2CCC[C@H]1C2` (relative stereo) [Compound 43, (±)-endo-2-(4-Methyl-3-pentenylthio)-3-(1-azabicyclo[3.2. 1]octyl-6-oxy)pyrazine] were, in that order, 2.2 nM and 8.1 nM.

Values taken from patent US6194416A, “Heterocyclic compounds and their use” (Eli Lilly and Company, priority 1997, dated 2001).
